# Like-named read-outs stand apart in the source and are kept apart here. Positions of bridges follow the written chain, without caps; N, C: chain ends. Non-standard residues stand in square brackets, D forms with d. Residues, ends and D or L forms follow the SMILES beside them. pGlu = O=C1CC[C@@H](C(=O)O)N1
# Columns and labels:
# Test in all cases: cell-based
# hNav1.3 = hNav1.3 (Homo sapiens, UniProt Q9NY46)
# hNav1.5 = hNav1.5 (Homo sapiens, UniProt Q14524)
# hNav1.7 = hNav1.7 (Homo sapiens, UniProt Q15858); format: cell-based
# Sequence of hNav1.7 (Q15858 whole entry, looked up): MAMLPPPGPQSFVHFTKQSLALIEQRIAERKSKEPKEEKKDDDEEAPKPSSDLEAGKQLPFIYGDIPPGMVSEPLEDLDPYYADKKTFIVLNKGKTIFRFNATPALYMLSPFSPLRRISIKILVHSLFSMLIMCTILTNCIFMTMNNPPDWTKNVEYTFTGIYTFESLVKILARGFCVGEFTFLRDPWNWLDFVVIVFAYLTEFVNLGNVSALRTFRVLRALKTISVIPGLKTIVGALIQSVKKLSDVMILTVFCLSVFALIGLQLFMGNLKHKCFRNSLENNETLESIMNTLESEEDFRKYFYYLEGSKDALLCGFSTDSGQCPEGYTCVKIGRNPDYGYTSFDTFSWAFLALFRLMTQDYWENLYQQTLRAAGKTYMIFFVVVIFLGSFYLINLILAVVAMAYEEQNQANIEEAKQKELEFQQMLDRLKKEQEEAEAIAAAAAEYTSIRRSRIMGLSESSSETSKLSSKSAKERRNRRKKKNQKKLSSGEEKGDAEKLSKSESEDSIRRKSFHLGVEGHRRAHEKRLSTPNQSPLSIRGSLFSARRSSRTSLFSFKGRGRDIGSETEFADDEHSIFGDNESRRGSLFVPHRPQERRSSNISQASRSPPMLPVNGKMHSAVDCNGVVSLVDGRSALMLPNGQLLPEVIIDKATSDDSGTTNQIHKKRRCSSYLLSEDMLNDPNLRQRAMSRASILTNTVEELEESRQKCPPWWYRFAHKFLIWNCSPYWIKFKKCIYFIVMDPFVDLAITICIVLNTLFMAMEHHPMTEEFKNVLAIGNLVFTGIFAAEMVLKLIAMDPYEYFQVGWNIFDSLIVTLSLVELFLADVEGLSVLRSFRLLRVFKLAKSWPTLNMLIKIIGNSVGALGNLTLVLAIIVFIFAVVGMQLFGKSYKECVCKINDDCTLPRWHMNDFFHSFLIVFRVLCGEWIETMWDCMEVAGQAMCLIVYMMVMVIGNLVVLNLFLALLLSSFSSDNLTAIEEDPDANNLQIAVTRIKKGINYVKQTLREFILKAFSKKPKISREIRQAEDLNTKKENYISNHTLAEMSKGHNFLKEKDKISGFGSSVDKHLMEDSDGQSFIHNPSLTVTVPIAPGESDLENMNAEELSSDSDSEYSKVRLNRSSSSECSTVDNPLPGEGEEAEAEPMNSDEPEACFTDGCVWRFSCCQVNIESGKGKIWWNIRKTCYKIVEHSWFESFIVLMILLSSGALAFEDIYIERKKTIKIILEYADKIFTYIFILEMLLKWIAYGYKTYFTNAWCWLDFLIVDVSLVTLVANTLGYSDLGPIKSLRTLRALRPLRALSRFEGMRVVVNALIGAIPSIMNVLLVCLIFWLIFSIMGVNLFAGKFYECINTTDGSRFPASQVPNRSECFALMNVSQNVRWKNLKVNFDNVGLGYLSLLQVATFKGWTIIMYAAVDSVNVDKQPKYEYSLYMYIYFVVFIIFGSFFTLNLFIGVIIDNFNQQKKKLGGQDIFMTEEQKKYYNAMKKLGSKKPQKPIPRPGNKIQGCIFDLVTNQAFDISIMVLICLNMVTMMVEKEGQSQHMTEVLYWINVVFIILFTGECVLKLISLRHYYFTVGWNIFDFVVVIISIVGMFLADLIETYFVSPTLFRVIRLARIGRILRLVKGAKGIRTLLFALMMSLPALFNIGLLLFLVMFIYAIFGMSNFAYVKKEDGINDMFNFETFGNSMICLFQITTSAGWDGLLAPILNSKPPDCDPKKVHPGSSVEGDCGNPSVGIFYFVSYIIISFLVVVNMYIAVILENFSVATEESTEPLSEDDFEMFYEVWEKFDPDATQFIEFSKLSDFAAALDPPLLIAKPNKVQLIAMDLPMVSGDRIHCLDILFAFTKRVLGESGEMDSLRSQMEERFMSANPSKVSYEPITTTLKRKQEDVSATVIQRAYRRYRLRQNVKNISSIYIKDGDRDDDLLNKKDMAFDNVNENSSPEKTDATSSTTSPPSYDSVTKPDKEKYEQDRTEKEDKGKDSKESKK
# [1] = IonWorks Quattro, clamped to −110 mV, depolarized to −10 mV, 5 min after compound, n=2, read-out: IWQ Use Nav1.3
# [2] = IonWorks Quattro, clamped to −110 mV, depolarized to −10 mV, 5 min after compound, n=2, read-out: IWQ Use Nav1.5
# [3] = IonWorks Quattro, clamped to −110 mV, depolarized to −10 mV, 5 min after compound, n=2, read-out: IWQ Use Nav1.7
# Sequence of hNav1.3 (Q9NY46 whole entry, looked up): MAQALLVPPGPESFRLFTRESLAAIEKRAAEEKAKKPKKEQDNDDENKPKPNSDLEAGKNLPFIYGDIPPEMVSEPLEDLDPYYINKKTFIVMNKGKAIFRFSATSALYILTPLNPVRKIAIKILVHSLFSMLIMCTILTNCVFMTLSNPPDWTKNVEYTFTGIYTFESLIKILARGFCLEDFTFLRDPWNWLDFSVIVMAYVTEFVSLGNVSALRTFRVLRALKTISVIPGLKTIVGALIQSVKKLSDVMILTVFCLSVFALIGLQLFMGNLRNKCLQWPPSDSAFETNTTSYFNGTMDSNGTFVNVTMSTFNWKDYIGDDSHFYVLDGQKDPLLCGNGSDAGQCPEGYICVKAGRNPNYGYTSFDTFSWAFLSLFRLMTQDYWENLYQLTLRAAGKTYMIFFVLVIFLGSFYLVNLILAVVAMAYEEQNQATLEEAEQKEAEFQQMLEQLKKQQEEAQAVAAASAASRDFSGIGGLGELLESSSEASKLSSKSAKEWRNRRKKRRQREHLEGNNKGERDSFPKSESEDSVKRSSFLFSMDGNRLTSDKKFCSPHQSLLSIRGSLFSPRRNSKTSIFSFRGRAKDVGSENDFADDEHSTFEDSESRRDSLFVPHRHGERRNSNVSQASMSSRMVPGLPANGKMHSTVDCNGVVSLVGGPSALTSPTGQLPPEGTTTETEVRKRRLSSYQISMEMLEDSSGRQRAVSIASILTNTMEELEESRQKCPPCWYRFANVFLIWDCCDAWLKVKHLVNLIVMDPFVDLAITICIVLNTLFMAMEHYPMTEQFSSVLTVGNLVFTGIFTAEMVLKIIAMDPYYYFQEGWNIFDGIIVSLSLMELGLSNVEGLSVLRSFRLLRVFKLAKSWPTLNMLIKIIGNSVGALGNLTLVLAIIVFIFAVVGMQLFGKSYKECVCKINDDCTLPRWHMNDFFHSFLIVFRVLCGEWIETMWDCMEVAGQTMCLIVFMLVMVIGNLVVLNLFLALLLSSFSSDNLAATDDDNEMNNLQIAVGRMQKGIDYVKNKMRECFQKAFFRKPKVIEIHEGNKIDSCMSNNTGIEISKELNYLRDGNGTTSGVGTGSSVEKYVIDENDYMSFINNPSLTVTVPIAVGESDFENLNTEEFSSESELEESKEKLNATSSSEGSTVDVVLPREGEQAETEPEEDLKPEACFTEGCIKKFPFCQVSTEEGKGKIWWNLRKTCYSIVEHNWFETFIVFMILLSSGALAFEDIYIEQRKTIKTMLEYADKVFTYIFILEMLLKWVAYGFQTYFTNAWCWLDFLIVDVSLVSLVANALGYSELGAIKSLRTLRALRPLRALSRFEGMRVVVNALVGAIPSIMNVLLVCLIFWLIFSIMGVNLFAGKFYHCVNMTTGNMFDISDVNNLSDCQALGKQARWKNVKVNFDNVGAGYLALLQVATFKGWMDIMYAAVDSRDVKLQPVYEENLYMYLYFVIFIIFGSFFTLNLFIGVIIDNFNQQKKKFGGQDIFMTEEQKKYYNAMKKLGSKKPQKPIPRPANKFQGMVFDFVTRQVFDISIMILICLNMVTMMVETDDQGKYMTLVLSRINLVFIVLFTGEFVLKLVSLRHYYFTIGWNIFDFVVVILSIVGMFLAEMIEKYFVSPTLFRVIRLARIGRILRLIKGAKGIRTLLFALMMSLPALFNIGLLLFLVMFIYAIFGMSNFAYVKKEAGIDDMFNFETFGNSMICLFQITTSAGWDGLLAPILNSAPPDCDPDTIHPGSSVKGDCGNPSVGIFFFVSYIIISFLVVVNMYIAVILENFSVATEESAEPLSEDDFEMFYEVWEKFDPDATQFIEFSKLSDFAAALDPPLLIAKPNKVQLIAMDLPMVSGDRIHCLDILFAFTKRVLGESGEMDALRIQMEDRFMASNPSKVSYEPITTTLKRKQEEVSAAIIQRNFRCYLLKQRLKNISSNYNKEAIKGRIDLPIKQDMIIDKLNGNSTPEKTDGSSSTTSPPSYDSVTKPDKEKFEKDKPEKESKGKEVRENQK
Structure (SMILES),IC50 (hNav1.3; [1]),IC50 (hNav1.5; [2]),IC50 (hNav1.7; [3]),IC50 (hNav1.3),IC50 (hNav1.5; IWQ Use Nav1.5 (μM)),IC50 (hNav1.7)
"CC[C@H](C)[C@@H]1NC(=O)[C@@H]2CSSC[C@@H]3NC(=O)[C@H](C(C)C)NC(=O)[C@H](CC(C)C)NC(=O)[C@H](CC(N)=O)NC(=O)[C@@H]4CCCN4C(=O)[C@H](CCCNC(=N)N)NC(=O)[C@H](CSSC[C@H](NC(=O)[C@@H]4CCC(=O)N4)C(=O)N[C@@H](CC(C)C)C(=O)NCC(=O)N[C@@H](Cc4ccccc4)C(=O)N[C@@H](CCSC)C(=O)N[C@@H](CCCNC(=N)N)C(=O)N[C@@H](CCCCN)C(=O)N2)NC(=O)[C@H](CSSC[C@@H](C(=O)N[C@@H](CCCCN)C(=O)N[C@@H](Cc2ccc(O)cc2)C(=O)N[C@H](C(=O)N[C@@H](Cc2ccccc2)C(N)=O)C(C)C)NC(=O)[C@H](Cc2c[nH]c4ccccc24)NC(=O)[C@H](CCCCN)NC(=O)[C@H](Cc2c[nH]cn2)NC(=O)[C@H]([C@@H](C)O)NC(=O)[C@H](CCCNC(=N)N)NC(=O)[C@H](CO)NC3=O)NC(=O)[C@H](CCCCN)NC(=O)[C@H](CC(=O)O)NC(=O)[C@H](CC(N)=O)NC(=O)[C@H](CC(=O)O)NC(=O)[C@@H]2CCCN2C1=O [SEQ ID NO: 188] ([pGlu]CLGFMRKCIPDNDKCCRPNLVCSRTHKWCKYVF-NH2; disulfide 2-17, 9-23, 16-30)",110 nM,10.7 µM,170 nM,,,
"CC[C@H](C)[C@H](N)C(=O)N[C@H]1CSSC[C@@H]2NC(=O)[C@@H]3CSSC[C@@H](C(=O)N[C@@H](CCCCN)C(=O)N[C@@H](Cc4ccc(O)cc4)C(=O)N[C@H](C(=O)N[C@@H](Cc4ccccc4)C(N)=O)C(C)C)NC(=O)[C@H](Cc4c[nH]c5ccccc45)NC(=O)[C@H](CCCCN)NC(=O)[C@H](Cc4c[nH]cn4)NC(=O)[C@H]([C@@H](C)O)NC(=O)[C@H](CCCNC(=N)N)NC(=O)[C@H](CO)NC(=O)[C@H](CSSC[C@H](NC(=O)[C@H](CCCCN)NC(=O)[C@H](CCCNC(=N)N)NC(=O)[C@H](CCSC)NC(=O)[C@H](Cc4ccccc4)NC(=O)CNC(=O)[C@H](CC(C)C)NC1=O)C(=O)N[C@@H]([C@@H](C)CC)C(=O)N1CCC[C@H]1C(=O)N[C@@H](CC(=O)O)C(=O)N[C@@H](CC(N)=O)C(=O)N[C@@H](CC(=O)O)C(=O)N[C@@H](CCCCN)C(=O)N3)NC(=O)[C@H](C(C)C)NC(=O)[C@H](CC(C)C)NC(=O)[C@H](CC(N)=O)NC(=O)[C@@H]1CCCN1C(=O)[C@H](CCCNC(=N)N)NC2=O [SEQ ID NO: 189] (H-ICLGFMRKCIPDNDKCCRPNLVCSRTHKWCKYVF-NH2; disulfide 2-17, 9-23, 16-30)",70 nM,8.15 µM,100 nM,,,
"CC[C@H](C)[C@@H]1NC(=O)[C@@H]2CSSC[C@@H]3NC(=O)[C@H](C(C)C)NC(=O)[C@H](CC(C)C)NC(=O)[C@H](CC(N)=O)NC(=O)[C@@H]4CCCN4C(=O)[C@H](CCCNC(=N)N)NC(=O)[C@H](CSSC[C@H](NC(=O)[C@@H]4CCCN4)C(=O)N[C@@H](CC(C)C)C(=O)NCC(=O)N[C@@H](Cc4ccccc4)C(=O)N[C@@H](CCSC)C(=O)N[C@@H](CCCNC(=N)N)C(=O)N[C@@H](CCCCN)C(=O)N2)NC(=O)[C@H](CSSC[C@@H](C(=O)N[C@@H](CCCCN)C(=O)N[C@@H](Cc2ccc(O)cc2)C(=O)N[C@H](C(=O)N[C@@H](Cc2ccccc2)C(N)=O)C(C)C)NC(=O)[C@H](Cc2c[nH]c4ccccc24)NC(=O)[C@H](CCCCN)NC(=O)[C@H](Cc2c[nH]cn2)NC(=O)[C@H]([C@@H](C)O)NC(=O)[C@H](CCCNC(=N)N)NC(=O)[C@H](CO)NC3=O)NC(=O)[C@H](CCCCN)NC(=O)[C@H](CC(=O)O)NC(=O)[C@H](CC(N)=O)NC(=O)[C@H](CC(=O)O)NC(=O)[C@@H]2CCCN2C1=O [SEQ ID NO: 190] (H-PCLGFMRKCIPDNDKCCRPNLVCSRTHKWCKYVF-NH2; disulfide 2-17, 9-23, 16-30)",40 nM,9.73 µM,90 nM,,,
"CC[C@H](C)[C@@H]1NC(=O)[C@@H]2CSSC[C@@H]3NC(=O)[C@H](C(C)C)NC(=O)[C@H](CC(C)C)NC(=O)[C@H](CC(N)=O)NC(=O)[C@@H]4CCCN4C(=O)[C@H](CCCNC(=N)N)NC(=O)[C@H](CSSC[C@H](NC(=O)[C@@H](N)CO)C(=O)N[C@@H](CC(C)C)C(=O)NCC(=O)N[C@@H](Cc4ccccc4)C(=O)N[C@@H](CCSC)C(=O)N[C@@H](CCCNC(=N)N)C(=O)N[C@@H](CCCCN)C(=O)N2)NC(=O)[C@H](CSSC[C@@H](C(=O)N[C@@H](CCCCN)C(=O)N[C@@H](Cc2ccc(O)cc2)C(=O)N[C@H](C(=O)N[C@@H](Cc2ccccc2)C(N)=O)C(C)C)NC(=O)[C@H](Cc2c[nH]c4ccccc24)NC(=O)[C@H](CCCCN)NC(=O)[C@H](Cc2c[nH]cn2)NC(=O)[C@H]([C@@H](C)O)NC(=O)[C@H](CCCNC(=N)N)NC(=O)[C@H](CO)NC3=O)NC(=O)[C@H](CCCCN)NC(=O)[C@H](CC(=O)O)NC(=O)[C@H](CC(N)=O)NC(=O)[C@H](CC(=O)O)NC(=O)[C@@H]2CCCN2C1=O [SEQ ID NO: 191] (H-SCLGFMRKCIPDNDKCCRPNLVCSRTHKWCKYVF-NH2; disulfide 2-17, 9-23, 16-30)",50 nM,9.4 µM,70 nM,,,
"CC[C@H](C)[C@@H]1NC(=O)[C@@H]2CSSC[C@@H]3NC(=O)[C@H](C(C)C)NC(=O)[C@H](CC(C)C)NC(=O)[C@H](CC(N)=O)NC(=O)[C@@H]4CCCN4C(=O)[C@H](CCCNC(=N)N)NC(=O)[C@H](CSSC[C@H](NC(=O)[C@@H](N)[C@@H](C)O)C(=O)N[C@@H](CC(C)C)C(=O)NCC(=O)N[C@@H](Cc4ccccc4)C(=O)N[C@@H](CCSC)C(=O)N[C@@H](CCCNC(=N)N)C(=O)N[C@@H](CCCCN)C(=O)N2)NC(=O)[C@H](CSSC[C@@H](C(=O)N[C@@H](CCCCN)C(=O)N[C@@H](Cc2ccc(O)cc2)C(=O)N[C@H](C(=O)N[C@@H](Cc2ccccc2)C(N)=O)C(C)C)NC(=O)[C@H](Cc2c[nH]c4ccccc24)NC(=O)[C@H](CCCCN)NC(=O)[C@H](Cc2c[nH]cn2)NC(=O)[C@H]([C@@H](C)O)NC(=O)[C@H](CCCNC(=N)N)NC(=O)[C@H](CO)NC3=O)NC(=O)[C@H](CCCCN)NC(=O)[C@H](CC(=O)O)NC(=O)[C@H](CC(N)=O)NC(=O)[C@H](CC(=O)O)NC(=O)[C@@H]2CCCN2C1=O [SEQ ID NO: 192] (H-TCLGFMRKCIPDNDKCCRPNLVCSRTHKWCKYVF-NH2; disulfide 2-17, 9-23, 16-30)",70 nM,9.21 µM,110 nM,,,
"CC[C@H](C)[C@@H]1NC(=O)[C@@H]2CSSC[C@@H]3NC(=O)[C@H](C(C)C)NC(=O)[C@H](CC(C)C)NC(=O)[C@H](CC(N)=O)NC(=O)[C@@H]4CCCN4C(=O)[C@H](CCCNC(=N)N)NC(=O)[C@H](CSSC[C@H](NC(=O)[C@@H](N)CC(=O)O)C(=O)N[C@@H](CC(C)C)C(=O)NCC(=O)N[C@@H](C)C(=O)N[C@@H](Cc4ccccc4)C(=O)N[C@@H](CCCNC(=N)N)C(=O)N[C@@H](CCCCN)C(=O)N2)NC(=O)[C@H](CSSC[C@@H](C(=O)N[C@@H](CCCCN)C(=O)N[C@@H](Cc2ccc(O)cc2)C(=O)N[C@H](C(=O)N[C@@H](Cc2ccccc2)C(N)=O)C(C)C)NC(=O)[C@H](Cc2c[nH]c4ccccc24)NC(=O)[C@H](CCCNC(=N)N)NC(=O)[C@H](Cc2cnc[nH]2)NC(=O)[C@H](CC(C)C)NC(=O)[C@H](CCCNC(=N)N)NC(=O)[C@H](CO)NC3=O)NC(=O)[C@H](CCCCN)NC(=O)[C@H](CC(=O)O)NC(=O)[C@H](CC(N)=O)NC(=O)[C@H](CC(=O)O)NC(=O)[C@@H]2CCCN2C1=O [SEQ ID NO: 262, [Ala5,Phe6,Leu26,Arg28]GpTx-1] (H-DCLGAFRKCIPDNDKCCRPNLVCSRLHRWCKYVF-NH2; disulfide 2-17, 9-23, 16-30)",,,,40 nM,5 µM,50 nM
CC[C@H](C)[C@@H]1NC(=O)[C@@H]2CSSC[C@@H]3NC(=O)[C@H](C(C)C)NC(=O)[C@H](CC(C)C)NC(=O)[C@H](CC(N)=O)NC(=O)[C@@H]4CCCN4C(=O)[C@H](CCCNC(=N)N)NC(=O)[C@H](CSSC[C@H](NC(=O)[C@@H](N)CC(=O)O)C(=O)N[C@@H](CC(C)C)C(=O)NCC(=O)N[C@@H](Cc4cn(C)c5ccccc45)C(=O)N[C@@H](CCSC)C(=O)N[C@@H](CCCNC(=N)N)C(=O)N[C@@H](CCCCN)C(=O)N2)NC(=O)[C@H](CSSC[C@@H](C(=O)N[C@@H](CCCCN)C(=O)N[C@@H](Cc2ccc(O)cc2)C(=O)N[C@H](C(=O)N[C@@H](Cc2ccccc2)C(N)=O)C(C)C)NC(=O)[C@H](Cc2c[nH]c4ccccc24)NC(=O)[C@H](CCCCN)NC(=O)[C@H](Cc2c[nH]cn2)NC(=O)[C@H]([C@@H](C)O)NC(=O)[C@H](CCCNC(=N)N)NC(=O)[C@H](CO)NC3=O)NC(=O)[C@H](CCCCN)NC(=O)[C@H](CC(=O)O)NC(=O)[C@H](CC(N)=O)NC(=O)[C@H](CC(=O)O)NC(=O)[C@@H]2CCCN2C1=O [SEQ ID NO: 264],90 nM,8.17 µM,90 nM,,,
"CC[C@H](C)[C@@H]1NC(=O)[C@@H]2CSSC[C@@H]3NC(=O)[C@H](C(C)C)NC(=O)[C@H](CC(C)C)NC(=O)[C@H](CC(N)=O)NC(=O)[C@@H]4CCCN4C(=O)[C@H](CCCNC(=N)N)NC(=O)[C@H](CSSC[C@H](NC(=O)[C@@H](N)CC(=O)O)C(=O)N[C@@H](CC(C)C)C(=O)NCC(=O)NCC(=O)N[C@@H](CCSC)C(=O)N[C@@H](CCCNC(=N)N)C(=O)N[C@@H](CCCCN)C(=O)N2)NC(=O)[C@H](CSSC[C@@H](C(=O)N[C@@H](CCCCN)C(=O)N[C@@H](Cc2ccc(O)cc2)C(=O)N[C@H](C(=O)N[C@@H](Cc2ccccc2)C(N)=O)C(C)C)NC(=O)[C@H](Cc2c[nH]c4ccccc24)NC(=O)[C@H](CCCCN)NC(=O)[C@H](Cc2cnc[nH]2)NC(=O)[C@H]([C@@H](C)O)NC(=O)[C@H](CCCNC(=N)N)NC(=O)[C@H](CO)NC3=O)NC(=O)[C@H](CCCCN)NC(=O)[C@H](CC(=O)O)NC(=O)[C@H](CC(N)=O)NC(=O)[C@H](CC(=O)O)NC(=O)[C@@H]2CCCN2C1=O [SEQ ID NO: 265] (H-DCLGGMRKCIPDNDKCCRPNLVCSRTHKWCKYVF-NH2; disulfide 2-17, 9-23, 16-30)",1240 nM,7.47 µM,750 nM,,,

# From patent publication US9340590B2 (priority 2011, dated 2016)
